Results taken from patent US20030013650A1, “VR-OAC, an osomotically activated channel protein, nucleic acids encoding it, and uses thereof” (The Rockefeller University, priority 2000, published 2003).
Entries after “also recorded” stand apart in the source; their conditions may differ.

How the values were obtained:
VR-OAC [1] = assay: Whole-cell and patch recordings from VR-OAC-transfected CHO-K1 cells; format: cell-based, chicken or rat; parameters: effect on VR-OAC-transfected cells (whole-cell current) / effect on whole-cell current: dose or concentration left out as unconfirmed; conditions: for VR-OAC currents on stimulation with hypotonic solution: after incubation in 10 μM thapsigargin and 20 μM SKF 96365 (combined)
Protocol: Electrophysiological characterization of VR-OAC was performed at room temperature on CHO-K1 cell lines stably or transiently transfected with one of four expression vectors, pcDNA3.1 (Invitrogen) with inserts bearing chicken or rat VR-OAC, eGFP-OAC, or eGFP-ΔOAC. These cells were selected because untransfected HEK 293 cells responded to hypotonic stress and Xenopus laevis oocytes are known to respond to membrane stretch (Yang and Sachs, 1989). Cells plated on glass-bottom Petri dishes were observed through a 40× water-immersion objective lens on an inverted microscope (Aviovert 100 M, Carl Zeiss) equipped with Nomarski optics. We recorded whole-cell and patch currents with a voltage-clamp amplifier (EPC-7, List-Electronic, Darmstadt-Eberstadt, Germany). Voltage stimuli were generated and responses recorded with a computer (P6400 GX1, Dell) running LabVIEW 5.0 software (National Instruments, Austin, Tex.). Voltage and current responses were low-pass filtered at 2 kHz with an eight-pole Bessel filter and sampled at 5 kHz.
Tight-seal pipettes were bent to permit an orthogonal approach to a cell's surface and heat-polished to give resistances of 3-5 MΩ. Internal solutions typically contained 117 mM NaCl, 5 mM HEPES, 1 mM EDTA, and mannitol to achieve isotonicity. EDTA was omitted in the pipette solution during experiments in which the bath solution also lacked EDTA. Pipette and cell capacitance were largely compensated; series resistance compensation ranged from 10% to 60%. Ground reference was provided by an Ag—AgCl electrode through a 150 mM KC1 agar bridge.
A fluid-jet stimulus was delivered by applying a pressure pulse of about 3 kPa to the rear of a glass pipette with a tip diameter of 5-10 μm. Filled with saline solution identical to that in the recording chamber, the pipette's tip was oriented perpendicular to the bottom of the chamber and placed roughly 10 μm above the target cell. The onset and termination of the jet were regulated by a solenoid valve (Picospritzer II, General Valve Corporation, Fairfield, N.J.) under computer control. During whole-cell recording, cells were maintained in isotonic or slightly hypertonic solutions. Mechanical stimulation was accomplished by perfusion of hypotonic solutions. […] Isotonic and hypertonic solutions were prepared by supplementing the standard hypotonic solution with mannitol to respectively 295 mmol kg−1 and 340 mmol kg−1.
In studies of the effects of Ca2+ and Gd3+ on whole-cell currents, hypotonic test solutions included respectively 2 mM CaCl2 or […] GdCl3. Because carboxylic-acid Ca2+ chelators are known to compromise the capacity of GdC13 to block mechanosensitive channels (Caldwell et al., 1998), EDTA was excluded from the latter medium and the pipette solution. […]

VR-OAC [2] = assay: Ca2+ imaging (fluo-4) of CHO cells transfected with VR-OAC or variants; format: cell-based, rat and chicken; conditions: for fluo-4 fluorescence upon exposure to hypotonic medium: stores depleted with 10 μM thapsigargin and potentiation channels blocked with 20 μM SKF 96365 (combined); for response of VR-OAC-transfected cells to ligand (fluo-4 Ca2+ imaging): chicken and rat VR-OAC-transfected cells, resiniferatoxin 0.2 μM and 5 μM, anandamide 5 μM and 25 μM
Description: (§1) To confirm that VR-OAC constitutes an ion channel and to determine the stimulus that gates it, we expressed the rat and chicken proteins in stably transfected Chinese hamster ovary (CHO) cells. Untransfected CHO cells and a line stably transfected with a VR1-expressing plasmid served as controls. We loaded VR-OAC-expressing cells with the Ca^2+ indicator fluo-4 AM and used conventional and confocal icroscopy to monitor changes in fluorescence, which reflected alterations in the ntracellular Ca^2+ concentration.
The complete cDNAs of rat VR-OAC, chicken VR-OAC, and rat VR1 were subcloned into the eukaryotic expression vector pcDNA3.1 (Invitrogen, Carlsbad, Calif.). CHO-K1 cells (ATCC, Manassas, Va.) were transfected with these vectors and selected with G418 (Life Technology, Gaithersburg, Md.). Stable clones that expressed the mRNAs were identified by Northern blot analysis and, for VR1, by response to ligand.
For Ca2+ imaging, cells were loaded for 30 min at room temperature in […] fluo-4 AM ester (Molecular Probes, Eugene, Oreg.) in isoosmotic Hille's saline solution (130 mM Na^+, 2.5 mM K^+, 2 mM Ca2+, 1 mM Mg2+, 138.5 mM Cl−, 20 mM D-glucose, and 10 mM HEPES at pH 7.3; Babcock et al., 1997) containing 2 mM probenecid. The cells were then washed and incubated for 15 min at 30° C. to promote deacetylation of internalized fluo-4 AM ester.
Confocal analysis was performed with an MRC-1024ES system (Bio-Rad, Hercules, Calif.) mounted on an inverted microscope (Zeiss Axiovert 135TV, Carl Zeiss, Jena, Germany). Confocal image series were collected using Lasersharp software (BioRad) running on a Poweredge 2300 computer (Dell Computer, Round Rock, Tex.). Images were also recorded with a cooled digital camera (Micromax, Princeton Instruments Inc., Princeton, N.J.) atop a Zeiss Axioplan microscope. These images were analyzed using IPLab software (Scanalytics Inc., Fairfax, Va.). Analysis of single-frame or single-cell integrated signal density was performed on Macintosh computers running NIH Image software (version 1.61; O'Neill et al., 1989).
Solutions with different osmotic strengths were created by adding water or mannitol to Hille's saline solution. Unless otherwise noted, the Ca2+ concentration of all solutions was held constant at 2 mM. The resultant osmolalities were verified with a vapor-pressure osmometer (Vapro 5520, Wescor Inc., Logan, Utah). The test solutions included a graded series of hypotonic solutions (with 220 mmol kg-1 the lowest osmolality), a hypertonic solution (330 mmol kg-1), isotonic solutions at 295 mmol kg-1 with graded concentrations of Na+ (with 50 mM the lowest concentration), and hypotonic solutions containing 100 μM, 250 μM, and 500 μM GdCl3. Ligands used for stimulation were resiniferatoxin (Sigma Chemicals, St. Louis, Mo.) at 0.2 μM and 5 μM and anandamide (Cayman Chemical, Ann Arbor, Mich.) at 5 μM and 25 μM. To test whether VR-OAC is directly gated by increases in temperature, we exposed dishes containing fluo-4-loaded cells to temperatures ranging from room temperature to 30° C., 37° C., 40° C., 45° C., 50° C., and 55° C. Images were acquired during the thermal stimulus series at intervals of 60 s for up to 10 min after the start of heating. A series of calibration experiments confirmed that this interval ensured proper thermal equilibration. A similar procedure was used to test the response to hypotonicity at various temperatures.

rat VR1 = target: T1, rat VR1 (Rattus norvegicus, UniProt O35433); assay: Ca2+ imaging (fluo-4) of control CHO cells expressing rat VR1; format: cell-based; conditions: control CHO line expressing rat VR1; 200 nM resiniferatoxin (FIG. 10A legend)
T1 construct: The complete cDNAs of rat VR-OAC, chicken VR-OAC, and rat VR1 were subcloned into the eukaryotic expression vector pcDNA3.1; expressed in transfected cells
Description: as §1
The complete cDNAs of rat VR-OAC, chicken VR-OAC, and rat VR1 were subcloned into the eukaryotic expression vector pcDNA3.1 (Invitrogen, Carlsbad, Calif.). CHO-K1 cells (ATCC, Manassas, Va.) were transfected with these vectors and selected with G418 (Life Technology, Gaithersburg, Md.). Stable clones that expressed the mRNAs were identified by Northern blot analysis and, for VR1, by response to ligand. […]
Confocal analysis was performed with an MRC-1024ES system (Bio-Rad, Hercules, Calif.) mounted on an inverted microscope (Zeiss Axiovert 135TV, Carl Zeiss, Jena, Germany). […] Images were also recorded with a cooled digital camera (Micromax, Princeton Instruments Inc., Princeton, N.J.) atop a Zeiss Axioplan microscope. These images were analyzed using IPLab software (Scanalytics Inc., Fairfax, Va.). […]

C. elegans mutant osm-9 = assay: Transgenic rescue of C. elegans mutant osm-9 (osmotic avoidance, nose touch, odorant avoidance); format: in vivo, Caenorhabditis elegans; conditions: for rescue of lack of osmotic avoidance and lack of response to nose touch: expressed in ASH neurons (sra6 promotor) of osm-9 worms
Protocol: The coding region of the rat VR-OAC cDNA was cloned into the C. elegans expression vector pPD49.26 that contained the sra6 promotor. This promotor directs expression in the ASH and ASI neurons. Purified DNA was injected into the gonad of hermaphroditic worms, strain N2, together with the marker gene elt-2/green fluorescent protein (GFP) which directs expression of GFP in C. elegans intestinal cells. Transgenic offspring could be identified by GFP fluorescence, and VR-OAC transgenic lines of worms were generated. Likewise, several transgenic lines of worms were established and maintained on an osm-9 (ky-10 allele) genetic background. In these worms, an osmotic avoidance in response to hyperosmotic stimuli was clearly present, as was sensitivity to nose touch (FIGS. 15A and 15B). The avoidance reactions were assayed on single animals as previously described^34. Odorant avoidance in response to octanone was not present. […] In order to confirm that the observed rescue is mediated by the ASH neuron, both ASH neurons were laser ablated in osm-9/VR-OAC transgenic (tg) worms. This procedure completely abolished rescue (FIGS. 15A and 15B). In order to visualize subcellular localization of the VR-OACtg in the ASH neuron, GFP was tagged to the C-terminus of VR-OAC. The tagged protein could be localized to the cilia of the ASH neuron in the worm nose where fluorescence was stronger than in any other part of this neuron. Rescue was not impaired in VR-OAC/GFPtg osm-9 worms (FIGS. 15A and 15B).
In order to understand better the specificity of the observed rescue, VR-OACtg worms were crossed to C. elegans mutants which genetically define the alternate mechanosensory pathway. VR-OACtg worms of the following mutant lines were generated: ocr-2, odr-3, glr-1, osm-10 and double-mutants of the former with osm-9. These lines were tested for osmotic avoidance, nose touch and odorant avoidance. […] In another control experiment addressing the specificity of the observed rescue, we expressed rat VR1 under the control of the sra6 promotor in ASH neurons of wild type and osm-9 worms. No rescue was observed. However, in osm-9 as well as in wild type worms tg for VR1 there was a strong avoidance response to vanilloids which was absent in non-tg worms.
Next, we wanted to use the transgenic rescue of osm-9 by VR-OAC as an in-vivo model in order to better understand structure-function relationships of VR-OAC. Gross deletions were constructed lacking either the N-terminal intracellular domain (aminoacid [AA] 1-410 of VR-OAC), the C-terminal intracellular domain (AA 741-781 of VR-OAC) or both. Three lines of worms were established for each of the gross deletions. The line with the most pronounced rescue as an indication of highest expression level of tg was investigated more in depth. […] The N-terminus and the C-terminus thus appear dispensable for the response to osmotic and mechanical stimuli, and, most likely, for proper intracellular transport in the ASH neuron. In addition to these gross deletions, we wanted to learn more about the structure-function relationship of strategically positioned single amino acid exchanges in the pore-loop domain of VR-OAC. As for the gross deletions, three lines of worms were generated for each point mutation. […]

T1 sequence (O35433 whole entry): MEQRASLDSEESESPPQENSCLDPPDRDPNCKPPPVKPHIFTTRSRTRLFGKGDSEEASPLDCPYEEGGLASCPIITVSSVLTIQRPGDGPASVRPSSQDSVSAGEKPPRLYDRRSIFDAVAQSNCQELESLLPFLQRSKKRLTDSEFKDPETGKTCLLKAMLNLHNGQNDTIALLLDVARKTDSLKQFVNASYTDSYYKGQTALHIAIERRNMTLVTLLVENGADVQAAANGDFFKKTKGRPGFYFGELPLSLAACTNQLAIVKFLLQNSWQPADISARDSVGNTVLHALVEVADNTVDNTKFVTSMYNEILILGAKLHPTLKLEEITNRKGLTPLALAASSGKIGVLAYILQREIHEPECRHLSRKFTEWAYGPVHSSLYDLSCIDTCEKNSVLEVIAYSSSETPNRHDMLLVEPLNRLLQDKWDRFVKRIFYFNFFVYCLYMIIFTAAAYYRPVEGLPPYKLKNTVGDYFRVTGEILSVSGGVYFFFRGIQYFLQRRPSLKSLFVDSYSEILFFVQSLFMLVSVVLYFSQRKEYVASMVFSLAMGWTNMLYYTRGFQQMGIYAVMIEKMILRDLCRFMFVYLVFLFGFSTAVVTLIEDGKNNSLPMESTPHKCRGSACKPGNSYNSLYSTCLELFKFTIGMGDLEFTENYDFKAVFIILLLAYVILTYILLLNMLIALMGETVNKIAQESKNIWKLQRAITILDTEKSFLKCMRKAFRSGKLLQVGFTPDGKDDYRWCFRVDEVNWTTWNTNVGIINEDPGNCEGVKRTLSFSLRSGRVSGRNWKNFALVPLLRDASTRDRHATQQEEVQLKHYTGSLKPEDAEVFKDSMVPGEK

[Gd+3] [Gd^3+, Gadolinium ion]
effect on VR-OAC-transfected cells (whole-cell current) (VR-OAC [1]; Gd^3+ extracellular, within the first few minutes): resembled that of Ca^2+ | effect on whole-cell current (VR-OAC [1]; Gd^3+, more protracted exposure): irreversibly abolished the whole-cell current

COc1ccc(CCCOC(Cn2ccnc2)c2ccc(OC)cc2)cc1 (stereo not shown) [SKF 96365]
fluo-4 fluorescence upon exposure to hypotonic medium (VR-OAC [2]): does not increase | VR-OAC currents on stimulation with hypotonic solution (VR-OAC [1]): displayed characteristic VR-OAC currents

CCCCC/C=C\C/C=C\C/C=C\C/C=C\CCCC(=O)NCCO [anandamide]
response of VR-OAC-transfected cells to ligand (fluo-4 Ca2+ imaging) (VR-OAC [2]): responded neither

C=C(C)[C@]12C[C@@H](C)[C@@]34O[C@](Cc5ccccc5)(O[C@@H]1[C@@H]3C=C(COC(=O)Cc1ccc(O)c(OC)c1)C[C@]1(O)C(=O)C(C)=C[C@@H]41)O2 [resiniferatoxin]
intracellular Ca^2+ concentration / Ca^2+ influx (fluo-4 fluorescence) (rat VR1): strong Ca^2+ influx; also recorded: increases the intracellular Ca^2+ concentration | response of VR-OAC-transfected cells to ligand (fluo-4 Ca2+ imaging) (VR-OAC [2]): responded neither

C/C=C(/C)C(=O)O[C@H]1C(C)=C2[C@H]([C@@H]1OC(=O)CCCCCCC)[C@@](C)(OC(C)=O)C[C@H](OC(=O)CCC)[C@@]1(O)[C@H]2OC(=O)[C@@]1(C)O [thapsigargin]
fluo-4 fluorescence upon exposure to hypotonic medium (VR-OAC [2]): does not increase | VR-OAC currents on stimulation with hypotonic solution (VR-OAC [1]): displayed characteristic VR-OAC currents

rat VR1: rat vanilloid receptor 1, expressed as specificity control
rescue of lack of osmotic avoidance and lack of response to nose touch (C. elegans mutant osm-9): No rescue

rat VR-OAC: rat orthologue of VR-OAC, 871 amino acids
rescue of lack of osmotic avoidance and lack of response to nose touch (C. elegans mutant osm-9): partial rescue | rescue of lack of odorant avoidance (C. elegans mutant osm-9; osm-9 worms, octanone): no rescue

B1: VROAC without both its N-terminus and C-terminus: VR-OAC deletion of both N-terminal (AA 1-410) and C-terminal (AA 741-781) regions (protein, UniProt Q9HBA0 411-740, looked up, fragment)
chain: YGPVYSSLYDLSSLDTCGEEASVLEILVYNSKIENRHEMLAVEPINELLRDKWRKFGAVSFYINVVSYLCAMVIFTLTAYYQPLEGTPPYPYRTTVDYLRLAGEVITLFTGVLFFFTNIKDLFMKKCPGVNSLFIDGSFQLLYFIYSVLVIVSAALYLAGIEAYLAVMVFALVLGWMNALYFTRGLKLTGTYSIMIQKILFKDLFRFLLVYLLFMIGYASALVSLLNPCANMKVCNEDQTNCTVPTYPSCRDSETFSTFLLDLFKLTIGMGDLEMLSSTKYPVVFIILLVTYIILTFVLLLNMLIALMGETVGQVSKESKHIWKLQWATT
rescue of lack of osmotic avoidance and lack of response to nose touch (C. elegans mutant osm-9): still rescues
